According to patent US9572794B2, “Substituted indoles as selective protease activated receptor 4 (PAR-4) antagonists” (Vanderbilt University, priority 2014, dated 2017):

Target: T1, PAR4 (Homo sapiens, UniProt Q96RI0)
T1 construct: 60 μL of washed platelets (Tyrodes buffer containing 0.1% BSA); endogenous in cells
T1 sequence (Q96RI0 18-385): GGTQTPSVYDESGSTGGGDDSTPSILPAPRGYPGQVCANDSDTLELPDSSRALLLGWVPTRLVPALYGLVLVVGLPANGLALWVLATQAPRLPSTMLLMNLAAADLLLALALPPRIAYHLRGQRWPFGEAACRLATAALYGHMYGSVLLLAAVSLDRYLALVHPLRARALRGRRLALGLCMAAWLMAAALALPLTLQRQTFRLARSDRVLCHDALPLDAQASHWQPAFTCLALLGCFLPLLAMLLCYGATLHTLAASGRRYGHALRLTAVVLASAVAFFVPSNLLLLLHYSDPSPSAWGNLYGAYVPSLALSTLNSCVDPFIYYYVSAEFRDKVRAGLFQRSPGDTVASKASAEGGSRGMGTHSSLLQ
Test: PAC-1 Binding assay (antagonism of PAR4 mediated αIIBβ3 activation, flow cytometry)
Type: cell-based
Conditions: for % Max PAC-1: washed platelets, 100% response = DMSO treated control stimulated with 200 μM PAR4-AP, mean values; for IC50: washed platelets stimulated with PAR4-AP, PAC-1 binding, sigmoidal dose response, variable slope
Method: PAC-1 Binding assay: 60 μL of washed platelets (Tyrodes buffer containing 0.1% BSA) at a concentration of 0.15×10^8 platelets/mL were added to 5 mL round bottom polystyrene tubes (BD, Franklin Lakes, N.J.). FITC conjugated PAC-1 (BD Biosciences, San Jose, Calif.) antibody was diluted (to the manufacturers recommended concentration) in Tyrode's buffer containing 0.1% BSA. 40 μL of diluted antibody was added to the platelets and allowed to incubate for 5 minutes. Platelets were pre-treated with indicated concentrations of antagonist or DMSO control for 5 minutes followed by addition of PAR1-AP (GL Biochem, Shanghai, China) or PAR4-AP for 10 minutes. […] The final DMSO concentration was 0.5%. Platelets were stored up to 18 hours at 4° C. before flow cytometric analysis. Analysis was carried out on a BD FACS Canto II (Franklin Lakes, N.J.). Fluorescent intensity was determined for 100,000 events within the platelet gate. Data was collected and analyzed via FACS DiVa software. Flow cytometric data analysis was conducted by the following method. The DMSO-vehicle treated control was subtracted from each data point. 100% response for PAR4-AP was determined for each individual as the DMSO treated control stimulated with either 200 μM PAR4-AP, or 20 μM PAR1-AP. Data was plotted in GraphPad PRISM v.5.0. For compounds with a notable reduction in PAC-1 binding response, dose response curves and IC50 values were generated using the inhibitory sigmoidal dose response ‘variable slope’ parameter. PAR4 results are plotted as mean values.

Structure (SMILES): COc1ccc(-c2c(CO)n(Cc3cccc(F)c3)c3ccc(OC(F)(F)F)cc23)cn1 [Example B1]
- % Max PAC-1: 80.6%

Structure (SMILES): COc1ccc(-c2c(CO)n(Cc3ccc(F)cc3F)c3ccc(OC(F)(F)F)cc23)cn1 [Example B2]
- IC50: 823 nM
- % Max PAC-1: 19.7%

Structure (SMILES): COc1ccc(-c2c(CO)n(Cc3cccc(C(F)(F)F)c3)c3ccc(OC(F)(F)F)cc23)cn1 [Example B3]
- % Max PAC-1: 59.7%

Structure (SMILES): COc1ccc(-c2c(CO)n(Cc3ccccc3)c3ccc(OC(F)(F)F)cc23)cn1 [Example B4]
- % Max PAC-1: 53.4%

Structure (SMILES): COc1ccc(-c2c(CO)n(Cc3cc(F)cc(F)c3)c3ccc(OC(F)(F)F)cc23)cn1 [Example B5]
- % Max PAC-1: 36.5%

Structure (SMILES): COc1ccc(-c2c(CO)n(Cc3ccccc3F)c3ccc(OC(F)(F)F)cc23)cn1 [Example B6]
- % Max PAC-1: 89.0%

Structure (SMILES): COc1ccc(-c2c(CO)n(Cc3cccc(Br)c3)c3ccc(OC(F)(F)F)cc23)cn1 [Example B7]
- % Max PAC-1: 27.2%

Structure (SMILES): COc1ccc(-c2c(CO)n(C)c3ccc(OC(F)(F)F)cc23)cn1 [Example B8]
- % Max PAC-1: 93.9%

Structure (SMILES): COc1cc(Cn2c(CO)c(-c3ccc(OC)nc3)c3cc(OC(F)(F)F)ccc32)cc(OC)c1 [Example B10]
- % Max PAC-1: 110.6%

Structure (SMILES): COc1cccc(Cn2c(CO)c(-c3ccc(OC)nc3)c3cc(OC(F)(F)F)ccc32)c1 [Example B11]
- % Max PAC-1: 40.9%

Structure (SMILES): COc1ccc(-c2c(CO)n(Cc3cccc(Cl)c3)c3ccc(OC(F)(F)F)cc23)cn1 [Example B12]
- % Max PAC-1: 27.8%

Structure (SMILES): COc1cccc(Cn2c(CO)c(-c3ccc(OC)nc3)c3cc(C(F)(F)F)ccc32)c1 [Example B13, (1-(3-methoxybenzyl)-3-(6-methoxypyridin-3-yl)-5-(trifluoromethyl)-1H-indol-2-yl)methanol]
- % Max PAC-1: 108.5%

Structure (SMILES): COc1ccc(-c2c(CO)n(Cc3cccc(Br)c3)c3ccc(S(C)(=O)=O)cc23)cn1 [Example B21]
- % Max PAC-1: 74.3%

Structure (SMILES): COc1ccc(-c2c(CO)n(Cc3ccccn3)c3ccc(C#N)cc23)cn1 [Example B26]
- % Max PAC-1: 113.7%

Structure (SMILES): COc1ccc(-c2c(CO)n(Cc3ccccn3)c3ccc(S(C)(=O)=O)cc23)cn1 [Example B27]
- % Max PAC-1: 100.1%

Structure (SMILES): COc1ccc(-c2c(CO)n(Cc3cccc(Br)c3)c3ccc(C#N)cc23)cn1 [Example B31]
- % Max PAC-1: 109.1%

Structure (SMILES): COc1ccc(-c2c(CO)n(Cc3ccc(F)cc3F)c3ccc(C#N)cc23)cn1 [Example B33]
- % Max PAC-1: 105.0%

Structure (SMILES): COc1ccc(-c2c(CO)n(Cc3ccc(C#N)cc3F)c3ccc(C#N)cc23)cn1 [Example B36]
- % Max PAC-1: 108.8%

Structure (SMILES): COc1ccc(-c2c(CO)n(Cc3ccccn3)c3cc4c(cc23)OCO4)cn1 [Example B38]
- % Max PAC-1: 107.2%

Structure (SMILES): COc1ccc(-c2c(CO)n(Cc3cccc(Cl)c3)c3cc4c(cc23)OCO4)cn1 [Example B39]
- % Max PAC-1: 100.1%

Structure (SMILES): COc1ccc(-c2c(CO)n(Cc3ccc(C#N)cc3F)c3cc4c(cc23)OCO4)cn1 [Example B40]
- % Max PAC-1: 98.6%

Structure (SMILES): COc1ccc(-c2c(CO)n(Cc3cccc(Br)c3)c3cc4c(cc23)OCO4)cn1 [Example B44]
- % Max PAC-1: 96.5%

Structure (SMILES): COc1cccc(Cn2c(CO)c(-c3ccc(OC)nc3)c3cc4c(cc32)OCO4)c1 [Example B45]
- % Max PAC-1: 129.1%

Structure (SMILES): OCc1c(-c2ccncc2)c2cc(OC(F)(F)F)ccc2n1Cc1ccccc1Cl [Example B47]
- % Max PAC-1: 101.7%

Structure (SMILES): CSc1ncc(-c2c(CO)n(Cc3ccc(F)cc3F)c3ccc(OC(F)(F)F)cc23)cn1 [Example B48]
- IC50: 1980 nM
- % Max PAC-1: 14.5%

Structure (SMILES): OCc1c(-c2cncnc2)c2cc(OC(F)(F)F)ccc2n1Cc1ccc(F)cc1F [Example B49]
- % Max PAC-1: 96.0%

Structure (SMILES): CCOc1ncc(-c2c(CO)n(Cc3ccc(F)cc3F)c3ccc(OC(F)(F)F)cc23)cn1 [Example B51]
- % Max PAC-1: 48.5%

Structure (SMILES): CCOc1ncc(-c2c(CO)n(Cc3ccccc3Cl)c3ccc(OC(F)(F)F)cc23)cn1 [Example B52]
- % Max PAC-1: 24.0%

Structure (SMILES): OCc1c(-c2ccc(F)nc2)c2cc(OC(F)(F)F)ccc2n1Cc1ccc(F)cc1F [Example B53]
- % Max PAC-1: 48.2%

Structure (SMILES): COc1ncc(-c2c(CO)n(Cc3ccccc3Cl)c3ccc(OC(F)(F)F)cc23)cn1 [Example B54]
- IC50: 2900 nM
- % Max PAC-1: 2.01%

Structure (SMILES): OCc1c(-c2cncnc2)c2cc(OC(F)(F)F)ccc2n1Cc1ccccc1Cl [Example B55]
- % Max PAC-1: 101.8%

Structure (SMILES): COc1ncc(-c2c(CO)n(Cc3ccc(F)cc3F)c3ccc(OC(F)(F)F)cc23)cn1 [Example B56]
- IC50: > 10000 nM
- % Max PAC-1: 53.7%

Structure (SMILES): OCc1c(-c2ccc(F)nc2)c2cc(OC(F)(F)F)ccc2n1Cc1ccccc1Cl [Example B57]
- IC50: 1290 nM
- % Max PAC-1: 21.05%

Structure (SMILES): OCc1c(-c2ccncc2)c2cc(OC(F)(F)F)ccc2n1Cc1ccc(F)cc1F [Example B58]
- % Max PAC-1: 102.2%

Structure (SMILES): COc1ccc2c(-c3ccc(OC)nc3)c(CO)n(Cc3ccccc3Cl)c2c1 [Example B59]
- IC50: 1350 nM
- % Max PAC-1: 4.31%

Structure (SMILES): COc1ccc2c(-c3cnc(SC)nc3)c(CO)n(Cc3ccccc3Cl)c2c1 [Example B60]
- IC50: 4300 nM
- % Max PAC-1: 21.33%

Structure (SMILES): CCOc1ccc2c(-c3ccc(OC)nc3)c(CO)n(Cc3ccccc3Cl)c2c1 [Example B61]
- IC50: 3840 nM
- % Max PAC-1: 19.78%

Structure (SMILES): COc1ccc(-c2c(CO)n(Cc3ccccc3)c3cc(OC(F)(F)F)ccc23)cn1 [Example B62]
- IC50: 3710 nM
- % Max PAC-1: 34.32%

Structure (SMILES): CCOc1ccc2c(-c3cnc(SC)nc3)c(CO)n(Cc3ccccc3Cl)c2c1 [Example B63]
- IC50: 2150 nM
- % Max PAC-1: 14.77%

Structure (SMILES): CSc1ncc(-c2c(CO)n(Cc3ccccc3Cl)c3cc(OC(C)C)ccc23)cn1 [Example B64]
- IC50: 1380 nM
- % Max PAC-1: 18.53%

Structure (SMILES): COc1ccc(-c2c(CO)n(Cc3ccccc3Cl)c3cc(OC(F)(F)F)ccc23)cn1 [Example B65]
- IC50: 966 nM
- % Max PAC-1: 12.25%

Structure (SMILES): COc1ccc(-c2c(CO)n(Cc3ccccc3Cl)c3cc(OC(C)C)ccc23)cn1 [Example B66]
- % Max PAC-1: 59.45%

Structure (SMILES): COc1ccc(-c2c(CO)[nH]c3ccc(OC(F)(F)F)cc23)cn1 [Example B67]
- % Max PAC-1: 116.1%

Structure (SMILES): COc1ccc(-c2c(CO)n(Cc3csc(-c4ccccc4)n3)c3ccc(OC(F)(F)F)cc23)cn1 [Example B68]
- % Max PAC-1: 61.98%

Structure (SMILES): COc1ccc(-c2c(CO)n(CC3CSC(c4ccccc4)=N3)c3ccc(OC(F)(F)F)cc23)cn1 (stereo not drawn) [Example B69]
- % Max PAC-1: 89.19%

Structure (SMILES): COc1ccc(-c2c(COCc3csc(-c4ccccc4)n3)n(Cc3csc(-c4ccccc4)n3)c3ccc(OC(F)(F)F)cc23)cn1 [Example B70]
- % Max PAC-1: 61.82%

Structure (SMILES): CSc1ncc(-c2c(CO)n(Cc3ccccc3Cl)c3cc(OC(F)(F)F)ccc23)cn1 [Example B71]
- IC50: 162 nM
- % Max PAC-1: 5.57%

Structure (SMILES): COc1ccc(-c2c(CO)n(Cc3ccccc3)c3cc(OC(C)C)ccc23)cn1 [Example B72]
- % Max PAC-1: 81.76%

Structure (SMILES): CSc1ccc(-c2c(CO)n(Cc3ccccc3Cl)c3ccc(OC(F)(F)F)cc23)cc1 [Example B73]
- % Max PAC-1: 107.63%

Structure (SMILES): COc1nn2cc(-c3c(CO)n(Cc4csc(-c5ccccc5)n4)c4ccc(OC(F)(F)F)cc34)nc2s1 [Example B74]
- % Max PAC-1: 38.32%

Structure (SMILES): COc1nn2cc(-c3c(CO)n(Cc4ccccc4Cl)c4ccc(OC(F)(F)F)cc34)nc2s1 [Example B75, (1-(2-chlorobenzyl)-3-(2-methoxyimidazo[2,1-b][1,3,4]thiadiazol-6-yl)-5-(trifluoromethoxy)-1H-indol-2-yl)methanol]
- IC50: 184 nM
- % Max PAC-1: 8.40%

Structure (SMILES): CSc1ccc(-c2c(CO)n(Cc3ccccc3Cl)c3ccc(OC(F)(F)F)cc23)cn1 [Example B76]
- % Max PAC-1: 79.22%
